Data on 1 compound can be found in patent EP0318620A1, “Herbicidal sulfonamides” (E.I. DU PONT DE NEMOURS AND COMPANY, priority 1987, dated 1989).

One assay concerns cheatgrass. Briefly: Test A greenhouse herbicide test, pre- and postemergence. The class given is in vivo, Bromus Secalinus. The settings on record: rated after sixteen days. An excerpt:
(§1) Seeds of crabgrass (Digitaria spp.), barnyardgrass (Echinochloa crusgalli), cheatgrass (Bromus Secalinus), giant foxtail (Setaria faberii), wild oats (Avena fatua), velvetleaf (Abutilon theophrasti), morningglory (Ipomoea spp. , cocklebur (Xanthium pensylvanicum). sorghum, corn, barley, soybean, sugarbeet, cotton, rice, wheat and purple nutsedge (Cyperus rotundus) tubers were planted and treated preemergence with the test chemicals dissolved in a non-phytotoxic solvent. At the same time, these crop and weed species were treated with a soil/foliage application. At the time of treatment, the plants ranged in height from 2 to 18 cm. Treated plants and controls were maintained in a greenhouse for sixteen days, after which all species were compared to controls and visually rated for response to treatment. The ratings, summarized in Table A, are based on a numerical scale extending from 0 = no injury, to 10 = complete kill. The accompanying descriptive symbols have the following meanings: • B = burn; • C = chlorosis/necrosis; • D = defoliation; • E = emergence inhibition; • G = growth retardation; • H = formative effect; • U = unusual pigmentation; • X = axillary stimulation; • S = albinism; and • 6Y = abscised buds or flowers.

The test system of a further assay is nutsedge. Briefly: Test B pan test in Sassafras sandy loam soil, pre- and postemergence. The class given is in vivo, Cyperus rotundus. The settings on record: scale 0 to 100. An excerpt: Three round pans (25 cm diameter by 12.5 cm deep) were filled with Sassafras sandy loam soil. One pan was planted with nutsedge (Cyperus rotundus) tubers, crabgrass (Digitaria sanguinalis), sicklepod (Cassia obtusifolia), jimsonweed (Datura stramonium), velvetleaf (Abutilon theophrasti), lambsquarters (Chenopodim album), rice (Oryza sativa) and teaweed (Sida spinosa). The second pot was planted with green foxtail (Setaria viridis), cocklebur (Xantium pensyivanicum), morningglory (lpomoea hederacea), cotton (Gossypium hirsutum), johnsongrass (Sorghum halepense), barnyardgrass (Echinochloa crusgalli), corn (Zea mays), soybean (Glycine max) and giant foxtail (Setaria faberi). The third pot was planted with wheat (Triticum aestivum), barley (Hordeum vulgare), wild buckwheat (Polgonum convolvulus L.), cheatgrass (Bromus secalinus L.), sugarbeet (Beta vulgaris), wild oats (Avena fatua), viola (Viola arvensis), blackgrass (Alopecurus myosuroides), and rape (Brassica napus). The plants were grown for approximately fourteen days, then sprayed postemergence with the chemicals dissolved in a non-phytotoxic solvent.
Three round pans (25 cm diameter by 12.5 cm deep) were filled with Sassafras sandy loam soil. One pan was planted with nutsedge tubers, crabgrass, sicklepod, jimsonweed, velvetleaf, lambsquarters, rice and teaweed. The second pot was planted with green foxtail, cocklebur, morningglory, cottom, johnsongrass, . barnyardgrass, corn, soybean and giant foxtail. The third pot was planted with wheat, barley, wild buckwheat, cheatgrass, sugarbeet, wild oat, viola, blackgrass and rape. The three pans were sprayed preemer gence with the chemicals dissolved in a non-phytotoxic solvent.
Treated plants and controls were maintained in the greenhouse for 24 days, then all rated plants were compared to controls and visually rated for plant response.
A dash (-) response means no test.

The next assay deals with purple nutsedge. Nature of the assay: Test A greenhouse herbicide test, pre- and postemergence. It counts as in vivo, Cyperus rotundus. The settings on record: rated after sixteen days.
Text: as §1

As for `CCOC(=O)c1c(CC#N)cccc1S(=O)(=O)NC(=O)Nc1nc(OC)cc(OC)n1` [Compound 3, 2-(cyanomethyl)-6 [[(4,6-dimethoxypyrimidin-2-yl)-aminocarbonyl]aminosulfonyl]benzoic acid, ethyl ester], the “CHEATGRASS visual rating of response to treatment” value with cheatgrass (POSTEMERGENCE, RATE 0.01 KG/HA) is 6G; in the assay on cheatgrass (PREEMERGENCE, RATE 0.01 KG/HA), 5G; in the assay on cheatgrass (PREEMERGENCE, RATE 0.05 KG/HA), 8H. Moreover, the NUTSEDGE response rating was determined as 100 in the assay with nutsedge (POSTEMERGENCE, RATE 0001 G/HA); 100 with nutsedge (POSTEMERGENCE, RATE 0004 G/HA); 100 in the assay with nutsedge (POSTEMERGENCE, RATE 0016 G/HA); 100 with nutsedge (POSTEMERGENCE, RATE 0062 G/HA); 0 with nutsedge (PREEMERGENCE, RATE 0004 G/HA); 30 with nutsedge (PREEMERGENCE, RATE 0016 G/HA). Further, the NUTSEDGE response rating in the assay with nutsedge (PREEMERGENCE, RATE 0062 G/HA) came out at 70. The “NUTSEDGE visual rating of response to treatment” value in the assay on purple nutsedge (POSTEMERGENCE, RATE 0.01 KG/HA) was 10C; in the assay with purple nutsedge (POSTEMERGENCE, RATE 0.05 KG/HA), 10C; with purple nutsedge (PREEMERGENCE, RATE 0.01 KG/HA), 4G; in the assay with purple nutsedge (PREEMERGENCE, RATE 0.05 KG/HA), 9G.
